What all share (assay): relative viability (nuclei count vs DMSO), 5 days (fraction); higher = more cells survive
Compound in the test “Crizotinib + Palbociclib”: C[C@@H](Oc1cc(-c2cnn(C3CCNCC3)c2)cnc1N)c1c(Cl)ccc(F)c1Cl [Crizotinib] + CC(=O)c1c(C)c2cnc(Nc3ccc(N4CCNCC4)cn3)nc2n(C2CCCC2)c1=O [Palbociclib] (partner 0.5 µM)
A digest of the protocol:
(§1)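 Values are medians from duplicate plates. Each reflects relative viability, defined as the nuclei count of treated wells over that of vehicle wells. Lung cancer cell lines in 1536-well plates were pin-tool dosed one day after seeding with one drug alone or with a fixed anchor-drug dose plus five library-drug doses (not always all listed) in √10 steps, then fixed, stained and imaged at 4× after 5 days.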

Compound in the test “Olaparib + Alpelisib”: O=C(c1cc(Cc2n[nH]c(=O)c3ccccc23)ccc1F)N1CCN(C(=O)C2CC2)CC1 [Olaparib] + Cc1nc(NC(=O)N2CCC[C@H]2C(N)=O)sc1-c1ccnc(C(C)(C)C(F)(F)F)c1 [Alpelisib] (partner 2 µM)
A digest of the protocol: as §1

Compound in the test “Carfilzomib + Alpelisib”: CC(C)C[C@H](NC(=O)[C@H](CCc1ccccc1)NC(=O)CN1CCOCC1)C(=O)N[C@@H](Cc1ccccc1)C(=O)N[C@@H](CC(C)C)C(=O)[C@@]1(C)CO1 [Carfilzomib] + Cc1nc(NC(=O)N2CCC[C@H]2C(N)=O)sc1-c1ccnc(C(C)(C)C(F)(F)F)c1 [Alpelisib] (partner 2 µM)
A digest of the protocol: as §1

Compound in the test “Carfilzomib + Phenformin”: CC(C)C[C@H](NC(=O)[C@H](CCc1ccccc1)NC(=O)CN1CCOCC1)C(=O)N[C@@H](Cc1ccccc1)C(=O)N[C@@H](CC(C)C)C(=O)[C@@]1(C)CO1 [Carfilzomib] + N=C(N)NC(=N)NCCc1ccccc1 [Phenformin] (partner 250 µM)
The method, boiled down:
as §1

Consider NCI-H520, for which the relative viability was determined as 0.24 with Crizotinib + Palbociclib (first compound 0.01 µM); 0.24 in the test with Crizotinib + Palbociclib (first compound 0.03162 µM); 0.205 with Crizotinib + Palbociclib (first compound 0.1 µM); 0.204 with Crizotinib + Palbociclib (first compound 0.3162 µM); 0.195 with Crizotinib + Palbociclib (first compound 1 µM); 1.05 with Olaparib + Alpelisib (first compound 0.08 µM). Besides, the relative viability in the test with Olaparib + Alpelisib (first compound 0.253 µM) worked out at 0.843; with Olaparib + Alpelisib (first compound 2.53 µM) it was 0.814; with Olaparib + Alpelisib (first compound 8 µM), 0.529; in the test with Carfilzomib + Alpelisib (first compound 0.001 µM), 1.11; with Carfilzomib + Alpelisib (first compound 0.003162 µM) it was 0.951; with Carfilzomib + Alpelisib (first compound 0.01 µM), 0.574. Further, the relative viability with Carfilzomib + Alpelisib (first compound 0.03162 µM) is 0.138; in the test with Carfilzomib + Alpelisib (first compound 0.1 µM) it was 0.137; with Carfilzomib + Phenformin (first compound 0.001 µM), 0.609; with Carfilzomib + Phenformin (first compound 0.003162 µM), 0.46; with Carfilzomib + Phenformin (first compound 0.01 µM), 0.227; with Carfilzomib + Phenformin (first compound 0.03162 µM), 0.287. For the same cell line, the relative viability with Carfilzomib + Phenformin (first compound 0.1 µM) came out at 0.227.
For NCI-H460, the relative viability with Crizotinib + Palbociclib (first compound 0.01 µM) was found to be 0.213; with Crizotinib + Palbociclib (first compound 0.03162 µM), 0.194; with Crizotinib + Palbociclib (first compound 0.1 µM), 0.175; with Crizotinib + Palbociclib (first compound 0.3162 µM) it was 0.166; with Crizotinib + Palbociclib (first compound 1 µM), 0.177; with Olaparib + Alpelisib (first compound 0.08 µM), 0.62. The relative viability in the test with Olaparib + Alpelisib (first compound 0.253 µM) was 0.38; with Olaparib + Alpelisib (first compound 2.53 µM) it was 0.238; with Olaparib + Alpelisib (first compound 8 µM), 0.173; with Carfilzomib + Alpelisib (first compound 0.001 µM) it was 0.556; with Carfilzomib + Alpelisib (first compound 0.003162 µM) it was 0.462; in the test with Carfilzomib + Alpelisib (first compound 0.01 µM), 0.538. Besides, the relative viability in the test with Carfilzomib + Alpelisib (first compound 0.03162 µM) amounted to 0.101; with Carfilzomib + Alpelisib (first compound 0.1 µM), 0.0126; with Carfilzomib + Phenformin (first compound 0.001 µM), 0.553; in the test with Carfilzomib + Phenformin (first compound 0.003162 µM), 0.582; with Carfilzomib + Phenformin (first compound 0.01 µM) it was 0.571; with Carfilzomib + Phenformin (first compound 0.03162 µM), 0.0312. In the test with Carfilzomib + Phenformin (first compound 0.1 µM), the relative viability was found to be 0.0172.
Take NCI-H2342: the relative viability with Crizotinib + Palbociclib (first compound 0.01 µM) is 0.527; with Crizotinib + Palbociclib (first compound 0.03162 µM) it was 0.549; with Crizotinib + Palbociclib (first compound 0.1 µM), 0.531; with Crizotinib + Palbociclib (first compound 0.3162 µM) it was 0.485; in the test with Crizotinib + Palbociclib (first compound 1 µM), 0.576; in the test with Carfilzomib + Phenformin (first compound 0.001 µM), 0.652. Further, the relative viability with Carfilzomib + Phenformin (first compound 0.003162 µM) came to 0.521; with Carfilzomib + Phenformin (first compound 0.01 µM), 0.715; with Carfilzomib + Phenformin (first compound 0.03162 µM), 0.671; with Carfilzomib + Phenformin (first compound 0.1 µM), 0.352.
For the cell line A549, the relative viability with Olaparib + Alpelisib (first compound 0.08 µM) came out at 0.822; in the test with Olaparib + Alpelisib (first compound 0.253 µM), 0.63; with Olaparib + Alpelisib (first compound 2.53 µM), 0.671; with Olaparib + Alpelisib (first compound 8 µM), 0.589; in the test with Carfilzomib + Alpelisib (first compound 0.001 µM), 0.652; with Carfilzomib + Alpelisib (first compound 0.003162 µM), 0.754. Also, the relative viability in the test with Carfilzomib + Alpelisib (first compound 0.01 µM) turned out to be 0.755; in the test with Carfilzomib + Alpelisib (first compound 0.03162 µM) it was 0.0509; in the test with Carfilzomib + Alpelisib (first compound 0.1 µM) it was 0.04; with Carfilzomib + Phenformin (first compound 0.001 µM), 0.0885; with Carfilzomib + Phenformin (first compound 0.003162 µM), 0.231; with Carfilzomib + Phenformin (first compound 0.01 µM), 0.113. The relative viability in the test with Carfilzomib + Phenformin (first compound 0.03162 µM) came out at 0.0362; in the test with Carfilzomib + Phenformin (first compound 0.1 µM), 0.0257.
With NCI-H596, the relative viability was determined as 0.532 in the test with Olaparib + Alpelisib (first compound 0.08 µM); 0.452 with Olaparib + Alpelisib (first compound 0.253 µM); 0.551 in the test with Olaparib + Alpelisib (first compound 2.53 µM); 0.41 in the test with Olaparib + Alpelisib (first compound 8 µM); 0.467 with Carfilzomib + Alpelisib (first compound 0.001 µM); 0.566 with Carfilzomib + Alpelisib (first compound 0.003162 µM). The relative viability in the test with Carfilzomib + Alpelisib (first compound 0.01 µM) worked out at 0.464; with Carfilzomib + Alpelisib (first compound 0.03162 µM), 0.276; with Carfilzomib + Alpelisib (first compound 0.1 µM) it was 0.194; with Carfilzomib + Phenformin (first compound 0.001 µM) it was 0.807; in the test with Carfilzomib + Phenformin (first compound 0.003162 µM) it was 0.812; with Carfilzomib + Phenformin (first compound 0.01 µM), 0.781. In addition, the relative viability with Carfilzomib + Phenformin (first compound 0.03162 µM) turned out to be 0.433; with Carfilzomib + Phenformin (first compound 0.1 µM), 0.25.
As to EBC-1, the relative viability came to 0.901 in the test with Olaparib + Alpelisib (first compound 0.08 µM); 0.794 with Olaparib + Alpelisib (first compound 0.253 µM); 0.68 with Olaparib + Alpelisib (first compound 2.53 µM); 0.633 with Olaparib + Alpelisib (first compound 8 µM); 0.7 with Carfilzomib + Alpelisib (first compound 0.001 µM); 0.792 in the test with Carfilzomib + Alpelisib (first compound 0.003162 µM). The relative viability was determined as 0.259 with Carfilzomib + Alpelisib (first compound 0.01 µM), 0.112 with Carfilzomib + Alpelisib (first compound 0.03162 µM) and 0.13 with Carfilzomib + Alpelisib (first compound 0.1 µM).
Regarding NCI-H1650, the relative viability in the test with Crizotinib + Palbociclib (first compound 0.01 µM) was 0.26; with Crizotinib + Palbociclib (first compound 0.03162 µM) it was 0.359; with Crizotinib + Palbociclib (first compound 0.1 µM), 0.379; in the test with Crizotinib + Palbociclib (first compound 0.3162 µM) it was 0.391; with Crizotinib + Palbociclib (first compound 1 µM) it was 0.319; in the test with Carfilzomib + Phenformin (first compound 0.001 µM) it was 0.421. The relative viability with Carfilzomib + Phenformin (first compound 0.003162 µM) is 0.254; with Carfilzomib + Phenformin (first compound 0.01 µM), 0.232; with Carfilzomib + Phenformin (first compound 0.03162 µM), 0.174; with Carfilzomib + Phenformin (first compound 0.1 µM), 0.156.
With NCI-H1299, the relative viability with Olaparib + Alpelisib (first compound 0.08 µM) stood at 1.03; with Olaparib + Alpelisib (first compound 0.253 µM) it was 1; in the test with Olaparib + Alpelisib (first compound 2.53 µM) it was 1.07; with Olaparib + Alpelisib (first compound 8 µM), 1.03; with Carfilzomib + Alpelisib (first compound 0.001 µM) it was 1.1; with Carfilzomib + Alpelisib (first compound 0.003162 µM), 1.01. In addition, the relative viability came out at 1.06 in the test with Carfilzomib + Alpelisib (first compound 0.01 µM), 1.02 with Carfilzomib + Alpelisib (first compound 0.03162 µM) and 0.257 in the test with Carfilzomib + Alpelisib (first compound 0.1 µM).
As to NCI-H522, the relative viability in the test with Crizotinib + Palbociclib (first compound 0.01 µM) came to 0.998; in the test with Crizotinib + Palbociclib (first compound 0.03162 µM), 1.18; with Crizotinib + Palbociclib (first compound 0.1 µM), 0.827; with Crizotinib + Palbociclib (first compound 0.3162 µM), 1.04; in the test with Crizotinib + Palbociclib (first compound 1 µM), 1.02; with Carfilzomib + Phenformin (first compound 0.001 µM), 0.697. The relative viability with Carfilzomib + Phenformin (first compound 0.003162 µM) came out at 0.719; in the test with Carfilzomib + Phenformin (first compound 0.01 µM), 0.668; in the test with Carfilzomib + Phenformin (first compound 0.03162 µM) it was 0.515; with Carfilzomib + Phenformin (first compound 0.1 µM), 0.401.
With SW 900, the relative viability with Crizotinib + Palbociclib (first compound 0.01 µM) turned out to be 0.544; in the test with Crizotinib + Palbociclib (first compound 0.03162 µM), 0.453; with Crizotinib + Palbociclib (first compound 0.1 µM), 0.497; with Crizotinib + Palbociclib (first compound 0.3162 µM), 0.546; with Crizotinib + Palbociclib (first compound 1 µM), 0.514; with Carfilzomib + Phenformin (first compound 0.001 µM), 0.431. The relative viability in the test with Carfilzomib + Phenformin (first compound 0.003162 µM) is 0.937; with Carfilzomib + Phenformin (first compound 0.01 µM), 0.133; with Carfilzomib + Phenformin (first compound 0.03162 µM), 0.163; with Carfilzomib + Phenformin (first compound 0.1 µM), 0.138.
Take NCI-H1563: the relative viability with Olaparib + Alpelisib (first compound 0.08 µM) came out at 1.04; with Olaparib + Alpelisib (first compound 0.253 µM) it was 0.952; with Olaparib + Alpelisib (first compound 2.53 µM), 0.929; in the test with Olaparib + Alpelisib (first compound 8 µM) it was 0.973; with Carfilzomib + Alpelisib (first compound 0.001 µM) it was 1.04; with Carfilzomib + Alpelisib (first compound 0.003162 µM) it was 0.866. Also, the relative viability with Carfilzomib + Alpelisib (first compound 0.01 µM) came out at 0.877; in the test with Carfilzomib + Alpelisib (first compound 0.03162 µM) it was 0.812; with Carfilzomib + Alpelisib (first compound 0.1 µM), 0.569; with Carfilzomib + Phenformin (first compound 0.001 µM), 0.673; with Carfilzomib + Phenformin (first compound 0.003162 µM), 0.681; in the test with Carfilzomib + Phenformin (first compound 0.01 µM) it was 0.61. The figures for the relative viability in the test with Carfilzomib + Phenformin (first compound 0.03162 µM) and in the test with Carfilzomib + Phenformin (first compound 0.1 µM) were 0.661 and 0.48, respectively.
For the cell line ChaGo-K-1, the relative viability in the test with Crizotinib + Palbociclib (first compound 0.01 µM) was determined as 0.917; in the test with Crizotinib + Palbociclib (first compound 0.03162 µM) it was 0.92; with Crizotinib + Palbociclib (first compound 0.1 µM), 0.971; in the test with Crizotinib + Palbociclib (first compound 0.3162 µM) it was 0.908; with Crizotinib + Palbociclib (first compound 1 µM), 0.98; in the test with Carfilzomib + Phenformin (first compound 0.001 µM) it was 0.438. Further, the relative viability with Carfilzomib + Phenformin (first compound 0.003162 µM) worked out at 0.524; in the test with Carfilzomib + Phenformin (first compound 0.01 µM), 0.501; with Carfilzomib + Phenformin (first compound 0.03162 µM) it was 0.442; with Carfilzomib + Phenformin (first compound 0.1 µM) it was 0.14.

For the origin of these results see the supplement of paper PMC10307832.
